From patent US4659717A, “Dihydropyridines useful in the treatment of angina and stroke” (Eli Lilly and Company, priority 1985, dated 1987) come the findings set out here.

In the first assay the test system is Dog Coronary Artery. Nature of the assay: Dog coronary artery test: relaxation of KCl-contracted coronary artery rings. Type of assay: cell-based. Particulars: Canis lupus familiaris, coronary artery rings contracted with 50 mM KCl, 37° C.; IC50 = 50% relaxation; mean values, probit analysis. Here is the method: Mongrel dogs of either sex and weighing 15 to 30 kg were anesthetized with pentobarbital (35 mg/kg). Each heart was quickly removed through a right thoracotomy and placed in Kreb's bicarbonate solution of the following composition (mM/L): NaCl, 118.2; KCl, 4.6; CaCl2.2H2 O, 1.6; KH2 PO4, 1.2; MgSO4.7H2 O, 1.2; NaHCO3, 24.8; and dextrose, 10.0. The medium was kept at room temperature and saturated with 95% O2 /5% CO2. The left anterior descending and circumflex coronary arteries were isolated and used either immediately or stored overnight at 5° C. Arteries were cut into rings approximately 2 to 3 mm wide, placed on 2 L-shaped hooks and mounted in a 10 ml organ bath by attaching one hook to a stationary glass rod and the other hook to a force-displacement transducer. Tissue medium consisted of Kreb's bicarbonate solution maintained at 37° C. and bubbled with 95 % O2 /5% CO2. Artery rings were equilibrated for 1-2 hours under a resting tension of 3 g. Tissue medium was then changed to one containing 50 mM KCl and 72.8 mM NaCl but otherwise identical to Kreb's bicarbonate solution. After tissues achieved a steady state contractile tension (1-2 hours) a given test agent was added to each bath and concentration-response curves determined. […] At the end of the concentration-response curve, tissue medium was changed to one identical to the 50 mM KCl buffer but containing 2.5 mM EGTA and no CaCl2.2H2 O to obtain complete relaxation of the tissue. Percent relaxation was then determined for each concentration and values producing 50% relaxation (IC50) were estimated using a probit analysis.
`CCOC(=O)C1=C(C)NC(C)=C(C(=O)OC)C1c1csc2ccncc12` (stereo not shown) [Example 33, 1,4-Dihydro-2,6-dimethyl-4-thieno[3,2-c]pyridin-3-yl-3,5-pyridinedicarboxylic acid, ethyl methyl ester] had an IC50 of 30.2 nM. In other words, the double-digit nanomolar range.

In the case of `COC(=O)C1=C(C)NC(C)=C(C(=O)OCCC#N)C1c1csc2ccncc12` (stereo not shown) [Example 34, 1,4-Dihydro-2,6-dimethyl-4-thieno[3,2-c]pyridin-3-yl-3,5-pyridinedicarboxylic acid, 2-cyanoethyl methyl ester], the midpoint of inhibition, the IC50, lay at 316 nM.

Molecule `COC(=O)C1=C(C)NC(C)=C(C(=O)OCCC#N)C1c1csc2ccccc12` (stereo not shown) [Example 35, 4-Benzo[b]thien-3-yl-1,4-dihydro-2,6-dimethyl-3,5-pyridinecarboxylic acid, 2-cyanoethyl methyl ester] showed an IC50 of 251 nM.

Consider `COCCOC(=O)C1=C(C)NC(C)=C(C(=O)OC(C)C)C1c1csc2ccncc12` (stereo not shown) [Example 37, 1,4-Dihydro-2,6-dimethyl-4-thieno[3,2-c]pyridin-3-yl-3,5-pyridinedicarboxylic acid, 2-methoxyethyl 1-methylethyl ester], for which the midpoint of inhibition, the IC50, lay at 166 nM.

Take `COC(=O)C1=C(C)NC(C)=C(C(=O)OC(C)C)C1c1csc2ccccc12` (stereo not shown) [Example 38, 4-Benzo[b]thien-3-yl-1,4-dihydro-2,6-dimethyl-3,5-pyridinedicarboxylic acid, methyl 1-methylethyl ester]: half-maximal inhibition (IC50) required 251 nM.

As for `COCCOC(=O)C1=C(C)NC(C)=C(C(=O)OC(C)C)C1c1csc2ccccc12` (stereo not shown) [Example 39, 4-Benzo[b]thien-3-yl-1,4-dihydro-2,6-dimethyl-3,5-pyridinedicarboxylic acid, 2-methoxyethyl 1-methylethyl ester], half-maximal inhibition (IC50) required 891 nM.

Molecule `CC[C@H](C)OC(=O)C1=C(C)NC(C)=C(C(=O)OC)C1c1csc2ccncc12` (stereo partly drawn) [Example 40, 1,4-Dihydro-2,6-dimethyl-4-thieno[3,2-c]pyridin-3-yl-3,5-pyridinedicarboxylic acid, methyl(S)-1-methylpropyl ester] had an IC50 of 33.1 nM. This IC50 is about 27-fold lower than that of the molecule before.

In turn, `COC(=O)C1=C(C)NC(C)=C(C(=O)OC(C)C)C1c1csc2cnccc12` (stereo not shown) [Example 41, 1,4-Dihydro-2,6-dimethyl-4-thieno[2,3-c]pyridin-3-yl-3,5-pyridinedicarboxylic acid, monomethyl mono(1-methylethyl)ester] had an IC50 of 32.4 nM.

For `CCC(C)OC(=O)C1=C(C)NC(C)=C(C(=O)OC)[C@H]1c1csc2ccncc12` (stereo partly drawn) [Example 42, (R)-1,4-Dihydro-2,6-dimethyl-4-thieno[3,2-c]pyridin-3-yl-3,5-pyridinedicarboxylic acid, methyl 1-methylpropyl ester], the IC50 is 81.3 nM.

Take `COC(=O)C1=C(C)NC(C)=C(C(=O)OCC(C)C)C1c1csc2ccncc12` (stereo not shown) [Example 43, 1,4-Dihydro-2,6-dimethyl-4-thieno[3,2-c]pyridin-3-yl-3,5-pyridinedicarboxylic acid, methyl 2-methylpropyl ester]: the IC50 is 100 nM.

For `COC(=O)C1=C(C)NC(C)=C(C(=O)OCC2CC2)C1c1csc2cnccc12` (stereo not shown) [Example 44, 1,4-Dihydro-2,6-dimethyl-4-thieno[2,3-c]pyridin-3-yl-3,5-pyridinedicarboxylic acid, cyclopropylmethyl methyl ester], half-maximal inhibition (IC50) was put at 70.8 nM.

As for `COC(=O)C1=C(C)NC(C)=C(C(=O)OC(C)(C)C)C1c1csc2ccncc12` (stereo not shown) [Example 45, 1,4-Dihydro-2,6-dimethyl-4-thieno[3,2-c]pyridin-3-yl-3,5-pyridinedicarboxylic acid, methyl 1,1-dimethylethyl ester], the IC50 was 646 nM.

Turning to `COC(=O)C1=C(C)NC(C)=C(C(=O)OCC2CC2)C1c1csc2cccnc12` (stereo not shown) [Example 46, 1,4-Dihydro-2,6-dimethyl-4-thieno[3,2-b]pyridin-3-yl-3,5-pyridinedicarboxylic acid, cyclopropylmethyl methyl ester], the IC50 is 83.2 nM.

The molecule `COC(=O)C1=C(C)NC(C)=C(C(=O)OC(C)c2ccccc2)[C@@H]1c1csc2ccncc12` (stereo partly drawn) [Example 47, (R)-1,4-Dihydro-2,6-dimethyl-4-thieno[3,2-c]pyridin-3-yl-3,5-pyridinedicarboxylic acid, methyl 1-phenylethyl ester] showed an IC50 of 49 nM.

Turning to `C#CCOC(=O)C1=C(C)NC(C)=C(C(=O)OC)C1c1csc2ccncc12` (stereo not shown) [Example 48, 1,4-Dihydro-2,6-dimethyl-4-thieno[3,2-c]pyridin-3-yl-3,5-pyridinedicarboxylic acid, methyl 2-propynyl ester], the IC50 is 91.2 nM.

Take `C=CCOC(=O)C1=C(C)NC(C)=C(C(=O)OC)C1c1csc2ccncc12` (stereo not shown) [Example 50, 1,4-Dihydro-2,6-dimethyl-4-thieno[3,2-c]pyridin-3-yl-3,5-pyridinecarboxylic acid, methyl 2-propenyl ester]: the IC50 is 40.7 nM.

Take `COC(=O)C1=C(C)NC(C)=C(C(=O)OCC2CC2)C1c1csc2ccncc12` (stereo not shown) [Example 51, 1,4-Dihydro-2,6-dimethyl-4-thieno[3,2-c]pyridin-3-yl-3,5-pyridinedicarboxylic acid, cyclopropylmethyl methyl ester]: the IC50 is 7.59 nM. This IC50 is about 5.4-fold lower than that of the molecule before.

`CCCCOC(=O)C1=C(C)NC(C)=C(C(=O)OCCCC)C1c1csc2ccncc12` [Example 53, 1,4-Dihydro-2,6-dimethyl-4-thieno[3,2-c]pyridin-3-yl-3,5-pyridinedicarboxylic acid, dibutyl ester] gave an IC50 of 1070 nM.

Consider `CCOC(=O)C1=C(C)NC(C)=C(C(=O)OCC)C1c1cccc2sccc12` [Example 55, 4-(Benzo[b]thien-4-yl)-1,4-dihydro-2,6-dimethyl-3,5-pyridinedicarboxylic a cid, diethyl ester], for which the IC50 is 151 nM.

The assay is the same for the next values; noted with them: coronary artery rings contracted with 50 mM KCl, 37° C.; IC50 = 50% relaxation; mean values, probit analysis.
Consider `CCC(C)OC(=O)C1=C(C)NC(C)=C(C(=O)OC)[C@@H]1c1csc2ccccc12` (stereo partly drawn) [Example 36, (S)-4-benzo[b]thien-3-yl-1,4-dihydro-2,6-dimethyl-3,5-pyridinedicarboxylicacid, methyl 1-methylpropyl ester], for which the “-log IC50” value is on record as 5.7.

On to `CCOC(=O)C1=C(C)NC(C)=C(C(=O)OCC)C1c1csc2ccncc12` [Example 52, 1,4-Dihydro-2,6-dimethyl-4-thieno[3,2-c]pyridin-3-yl-3,5-pyridinedicarboxylic acid, diethyl ester], for which the “-log IC50” value is recorded as 6.94.

On to `CCOC(=O)C1=C(C)NC(C)=C(C(=O)OCC)C1c1nccc2ccsc12` [Example 54, 1,4-Dihydro-2,6-dimethyl-4-thieno[2,3-c]pyridin-7-yl-3,5-pyridinedicarboxylic acid, diethyl ester], for which the “-log IC50” value is recorded as 7.1.

By IC50 is commonly meant the point on the concentration scale where inhibition reaches its midpoint. High values mean weaker potency in that assay, low ones greater potency in that assay.
